Legend:
GFP-GR = GFP-GR translocation study in BAECs; type: cell-based; conditions: 0.01-1 μM, 60-minute treatment
Method: BAECs were seeded at 1×10^5/ml in 24 well plates and allowed to spread overnight. Cells were transfected with GFP-GR chimeric protein by adding 450 ng of DNA complexed with 2 ul of lipofectamine in a 200 ul volume of Optimem media growth to each well of a 24 well plate for ˜1.5 hour. The DNA-lipofectamine complex was then removed and cells placed in DMEM supplemented with 0.5% calf serum. This reduced level of calf serum was used to prevent non-specific translocation of GFP-GR receptor in response to hormones in the serum. […] Analysis of GFP-GR translocation was conducted by counting the number of cells in each field of view, which had GFP-GR nuclear localization compared to total number of cells. ˜40 cells were analyzed per condition.

Water solubility = type: physicochemical
Excerpt: The 21-hydroxy group of dexamethasone is not required for anti-inflammatory activity, and therefore is an ideal choice for conjugation to a polycation (FIG. 1A) (Schimmer et al., 1996, in The Pharmacological Basis of Therapeutics, 1459-1485, eds. Hardman and Limbird, McGraw-Hill, New York). […] Traut's reagent is selectively ring-opened by the primary amines (Hermanson, 1996, Bioconjugate Techniques, Academic Press) on spermine, forming a hydrolytically sensitive amidimide bond (Hermanson, 1996, Bioconjugate Techniques, Academic Press) between spermine and iminothiolane and a reactive thiolate anion that reacts with the α-keto mesylate on the 21 position of dexamethasone mesylate (Simmons et al., 1980, J. Org. Chem. […]), yielding an α-keto thioether linkage between the dexamethasone and iminothiolane. Dexamethasone mesylate (prepared or received from Steraloids, N.H.) or dexamethasone (Steraloids, N.H.), 2-iminothiolane (Traut's reagent) (Pierce), spermine (Sigma), and ethanol or DMSO (Aldrich) were used as received. […] For DA, FIG. 1B: Calc: C, 63.26; H, 7.35; N, 2.84. Found: C, 63.44; H, 7.27; N, 2.83.

[1] = tested on: Bovine aortic endothelial cells (BAEC); test: Lipofection of BAEC with EGFP plasmid; type: cell-based; conditions: unconjugated, alone
Method: Bovine aortic endothelial cells (BAEC, passage 4-13) were passaged at a 1:3 split to 24-well culture plates, and then grown to dense confluence before lipofection. Growth medium was Dulbecco's modified Eagle's medium (DMEM) containing 10% heat inactivated charcoal-filtered (to remove steroid hormones) fetal calf serum (Hyclone), 0.30 mg/ml glutamine, 150 U/ml penicillin, and 0.15 mg/ml streptomycin (Gibco). […] The plasmids pEGFP-N3 and pGRE-SEAP (Clontech) were used for expression of EGFP or secreted alkaline phosphatase under the regulation of CMV or GRE promoters, respectively. […]
For lipofection, a solution of DS/DOPE in 125 μl OptiMEM I (Gibco) was mixed with a solution of DNA in 125 μl OptiMEM I, incubated for 30 to 60 minutes, and then overlaid on BAEC cells for 2 hours, followed by PBS rinse and addition of growth media. Fluorescence was measured after 48 hours. […] EGFP expression of transfections was monitored in duplicate (FIG. 2A) or triplicate (FIG. 2B) with a fluorescent plate reader (Labsystems Fluoroskan Ascent; 485 nm/538 nm filter pair) with background subtraction using the autofluorescence of non-transfected BAEC. […] Supernatant was collected, and pooled with supernatant from PBS washed and pelleted cells (total volume 750 μl), and EGFP fluorescence was measured (Ex 485, Em 515; SLM fluorometer). […]

| Compound | nuclear localization (translocation) of GFP-GR (GFP-GR) | solubility (Water solubility) [mg/mL] | gene transfer activity (EGFP expression) [1] |
| --- | --- | --- | --- |
| CCCCCCCCNCCC[C@@H](C)[C@H]1CC[C@H]2[C@@H]3[C@H](OCCCN)C[C@@H]4C[C@H](OCCCN)CC[C@]4(C)[C@H]3C[C@H](OCCCN)[C@]12C [CSA-13] | not observed |  |  |
| CC1C[C@H]2[C@@H]3CCC4=CC(=O)C=C[C@]4(C)[C@@]3(F)C(O)C[C@]2(C)[C@@]1(O)C(=O)CSCCCC(=N)NCCCNCCCCNCCCN (some centres unmarked) [DS, N-[3-({4-[(3-aminopropyl)amino]butyl}amino)propyl]-4-[(9-fluoro-11,17-dihydroxy-16-methyl-3,20-dioxopregna-1,4-dien-21-yl)sulfanyl]butanimidamide] | caused nuclear localization of GFP-GR | > 100 |  |
| NCCCNCCCCNCCCN [Spermine, spermine] |  |  | no detectable gene transfer activity |
| LL-37: cathelicidin peptide LL37, naturally occurring antibacterial agent (LLGDFFRKSKEKIGKEFKRIVQRIKDFLRNLVPRTES; Antibacterial peptide LL-37; UniProt P49913 134-170, looked up) | not observed |  |  |

Reference: patent US9180132B2, “Antimicrobial cationic steroids and methods of use” (The Trustees of the University of Pennsylvania, priority 2010, dated 2015)
